In patent US20260022142A1, “MACROCYCLIC IMMUNOMODULATORS” (Bristol-Myers Squibb Company, priority 2022, published 2026) one finds IC50 data, which are given here for 13 compounds.

Bridge positions count the residues as written; N and C are the ends. Square brackets hold non-standard residues; d marks the D form. Peptide text beside a SMILES is read from it. * marks the point of attachment. ξ: configuration not given here. Phe(3-CF3) = N[C@@H](Cc1cccc(C(F)(F)F)c1)C(=O)O; Phe(4-COOH) = N[C@@H](Cc1ccc(C(=O)O)cc1)C(=O)O; Bip = N[C@@H](Cc1ccc(-c2ccccc2)cc1)C(=O)O; NH(CH2)14COOH = O=C(O)CCCCCCCCCCCCCCN*; Phe(3-Me) = Cc1cccc(C[C@H](N)C(=O)O)c1; His(τ-Me) = Cn1cnc(C[C@H](N)C(=O)O)c1; Val(3-OH) = CC(C)(O)[C@H](N)C(=O)O; hArg = N=C(N)NCCCC[C@H](N)C(=O)O; Cha = N[C@@H](CC1CCCCC1)C(=O)O; Thr(3ξ) = CC(O)[C@H](N)C(=O)O; Dap(Me) = CNC[C@H](N)C(=O)O; 12Ado = NCCCCCCCCCCCC(=O)O; Carboxymethyl = O=C(O)C*; Orn = NCCC[C@H](N)C(=O)O; Aun = NCCCCCCCCCCC(=O)O; Dab = NCC[C@H](N)C(=O)O; Dap = NC[C@H](N)C(=O)O; AEEA = NCCOCCOCC(=O)O

T1 sequence (Q15116 25-288): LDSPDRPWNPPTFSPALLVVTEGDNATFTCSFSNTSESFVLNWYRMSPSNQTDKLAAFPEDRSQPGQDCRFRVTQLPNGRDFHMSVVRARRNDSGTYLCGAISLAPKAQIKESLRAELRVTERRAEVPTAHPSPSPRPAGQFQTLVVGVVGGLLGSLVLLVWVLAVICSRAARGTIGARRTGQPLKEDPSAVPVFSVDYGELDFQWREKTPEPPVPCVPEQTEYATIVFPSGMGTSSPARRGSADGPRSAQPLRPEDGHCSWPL

This experiment concerns the target T1, PD-1/PD-L1 interaction (PE-labeled human PD-L1-Ig binding to Jurkat cell line over-expressing human PD-1) (Homo sapiens, UniProt Q15116).
T1 construct: expressed in transfected cells; host or cells: Jurkat
Briefly: Jurkat-PD-1 Cell Binding High-Content Screening Assay (CBA). The class given is cell-based. The following applies: Jurkat cell line over-expressing human PD-1; PE-labeled PD-L1-Ig 20 nM final; read-out: Jurkat hPD1-PDL1 IC50. In a few lines: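 Jurkat cells over-expressing human PD-1 (8×10^3 per well, DMEM/10% FCS) preincubated with compound 2 h at 37° C, then PE-labeled human PD-L1-Ig (20 nM final) added for 1 h. Cells fixed with paraformaldehyde, Hoechst-stained, and bound fluorescence quantified by high-content imaging.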
As for `CC(C)C[C@H]1NC(=O)[C@H](CCCN)NC(=O)[C@H](C(C)C)NC(=O)[C@H](Cc2ccc(-c3ccccc3)cc2)NC(=O)[C@H](C(C)C)NC(=O)[C@H](Cc2c[nH]c3ccccc23)NC(=O)[C@H](CC(=O)O)NC(=O)[C@H](Cc2ccc(OCC(=O)O)cc2)NC(=O)[C@H](CCCCNC(=N)N)NC(=O)CSC[C@@H](C(=O)N[C@@H](CCCCN)C(=O)NCCCCCCCCCCCC(=O)O)NC(=O)[C@H](CO)NC(=O)[C@H](C(C)C)NC(=O)[C@H](CC2CCCCC2)NC(=O)[C@H](Cc2cnc[nH]2)NC1=O` [Compound 3155] ({CH2CO}-[hArg]Y(Carboxymethyl)DWV[Bip]V[Orn][dL]H[Cha]VSCK[12Ado]-OH; thioether N-14), the IC50 was 44.6 nM.

Consider `Cc1cccc(C[C@@H]2NC(=O)[C@H](CC(=O)O)NC(=O)[C@H](Cc3ccc(OCC(=O)O)cc3)NC(=O)[C@H](CN)NC(=O)CSC[C@@H](C(=O)N[C@@H](CCN)C(=O)NCCCCCCCCCCC(=O)O)NC(=O)[C@@H](CCC(=O)O)NC(=O)[C@H](C(C)C)NC(=O)[C@H](CC3CCCCC3)NC(=O)[C@H](CCN)NC(=O)[C@@H](CC(C)C)NC(=O)[C@H](CCCN)NC(=O)[C@H](Cc3ccc(O)cc3)NC(=O)[C@H](Cc3ccc(-c4ccccc4)cc3)NC(=O)[C@H](C(C)C)NC2=O)c1` [Compound 2756] ({CH2CO}-[Dap]Y(Carboxymethyl)D[Phe(3-Me)]V[Bip]Y[Orn][dL][Dab][Cha]V[dE]C[Dab][Aun]-OH; thioether N-14), for which the IC50 is 40.7 nM. As for `Cc1cccc(C[C@@H]2NC(=O)[C@H](CC(=O)O)NC(=O)[C@H](Cc3ccc(OCC(=O)O)cc3)NC(=O)[C@H](CCN)NC(=O)CSC[C@@H](C(=O)N[C@@H](CO)C(=O)NCCCCCCCCCCC(=O)O)NC(=O)[C@H](CO)NC(=O)[C@H](C(C)(C)O)NC(=O)[C@H](CC3CCCCC3)NC(=O)[C@H](Cc3cnc[nH]3)NC(=O)[C@@H](CC(C)C)NC(=O)[C@H](CCCN)NC(=O)[C@H](Cc3ccc(OCC(=O)O)cc3)NC(=O)[C@H](Cc3ccc(-c4ccccc4)cc3)NC(=O)[C@H](Cc3ccc(OCC(=O)O)cc3)NC2=O)c1` [Compound 3724] ({CH2CO}-[Dab]Y(Carboxymethyl)D[Phe(3-Me)]Y(Carboxymethyl)[Bip]Y(Carboxymethyl)[Orn][dL]H[Cha][Val(3-OH)]SCS[Aun]-OH; thioether N-14), the IC50 was determined as 73.9 nM. Under `CC(C)C[C@@H]1NC(=O)[C@H](Cc2c[nH]c3ccccc23)NC(=O)[C@H](CC(=O)O)NC(=O)[C@H](Cc2ccc(OCC(=O)O)cc2)NC(=O)[C@H](C(C)O)NC(=O)CSC[C@@H](C(=O)N[C@@H](CCN)C(=O)NCCCCCCCCCCC(=O)O)NC(=O)[C@H](CCCCN)NC(=O)[C@H](C(C)O)NC(=O)[C@H](CC2CCCCC2)NC(=O)[C@H](CCN)NC(=O)[C@@H](CC(C)C)NC(=O)[C@H](CCCN)NC(=O)[C@H](Cc2ccc(O)cc2)NC(=O)[C@H](Cc2ccc(-c3ccccc3)cc2)NC1=O` (stereo partly drawn) [Compound 3694] ({CH2CO}-[Thr(3ξ)]Y(Carboxymethyl)DWL[Bip]Y[Orn][dL][Dab][Cha][Thr(3ξ)]KC[Dab][Aun]-OH; thioether N-14) stands 72.8 nM; under `Cc1cccc(C[C@@H]2NC(=O)[C@H](CC(=O)O)NC(=O)[C@H](Cc3ccc(OCC(=O)O)cc3)NC(=O)[C@H](Cc3cn(C)cn3)NC(=O)CSC[C@@H](C(=O)N[C@@H](CCN)C(=O)NCCCCCCCCCCC(=O)O)NC(=O)[C@H](CCCCN)NC(=O)[C@H](C(C)C)NC(=O)[C@H](CC3CCCCC3)NC(=O)[C@H](CCN)NC(=O)[C@@H](CC(C)C)NC(=O)[C@H](CCCN)NC(=O)[C@H](C(C)C)NC(=O)[C@H](Cc3ccc(-c4ccccc4)cc3)NC(=O)[C@H](C(C)C)NC2=O)c1` [Compound 2037] ({CH2CO}-[His(τ-Me)]Y(Carboxymethyl)D[Phe(3-Me)]V[Bip]V[Orn][dL][Dab][Cha]VKC[Dab][Aun]-OH; thioether N-14), 16.9 nM. Turning to `Cc1cccc(C[C@@H]2NC(=O)[C@H](CC(=O)O)NC(=O)[C@H](Cc3ccc(OCC(=O)O)cc3)NC(=O)[C@H](CN)NC(=O)CSC[C@@H](C(=O)N[C@@H](CCN)C(=O)NCCOCCOCC(=O)NCCCCCCCCCCC(=O)O)NC(=O)[C@H](CN)NC(=O)[C@H](C(C)C)NC(=O)[C@H](CC3CCCCC3)NC(=O)[C@H](CCN)NC(=O)[C@@H](CC(C)C)NC(=O)[C@H](CCCN)NC(=O)[C@H](C(C)C)NC(=O)[C@H](Cc3ccc(-c4ccccc4)cc3)NC(=O)[C@H](C(C)C)NC2=O)c1` [Compound 2550] ({CH2CO}-[Dap]Y(Carboxymethyl)D[Phe(3-Me)]V[Bip]V[Orn][dL][Dab][Cha]V[Dap]C[Dab][AEEA][Aun]-OH; thioether N-14), the IC50 came out at 8 nM. Take `CC(C)C[C@H]1NC(=O)[C@H](CCCN)NC(=O)[C@H](C(C)C)NC(=O)[C@H](Cc2ccc(-c3ccccc3)cc2)NC(=O)[C@H](C(C)C)NC(=O)[C@H](Cc2c[nH]c3ccccc23)NC(=O)[C@H](CC(=O)O)NC(=O)[C@H](Cc2ccc(OCC(=O)O)cc2)NC(=O)[C@H](CN)NC(=O)CSC[C@@H](C(=O)N[C@@H](CCN)C(=O)NCCCCCCCCCCC(=O)O)NC(=O)[C@H](CCN)NC(=O)[C@H](C(C)O)NC(=O)[C@H](CC2CCCCC2)NC(=O)[C@H](CCN)NC1=O` (stereo partly drawn) [Compound 3676] ({CH2CO}-[Dap]Y(Carboxymethyl)DWV[Bip]V[Orn][dL][Dab][Cha][Thr(3ξ)][Dab]C[Dab][Aun]-OH; thioether N-14): the IC50 stood at 9.2 nM. Under `Cc1cccc(C[C@@H]2NC(=O)[C@H](CC(=O)O)NC(=O)[C@H](Cc3ccc(OCC(=O)O)cc3)NC(=O)[C@H](CN)NC(=O)CSC[C@@H](C(=O)NCCOCCOCC(=O)NCCCCCCCCCCC(=O)O)NC(=O)[C@H](CCCNC(=N)N)NC(=O)[C@H](Cc3ccc(O)cc3)NC(=O)[C@H](CC3CCCCC3)NC(=O)[C@H](CCN)NC(=O)[C@@H](CC(C)C)NC(=O)[C@H](CCCN)NC(=O)[C@H](Cc3ccc(O)cc3)NC(=O)[C@H](Cc3ccc(-c4ccccc4)cc3)NC(=O)[C@H](Cc3ccc(O)cc3)NC2=O)c1` [Compound 2520] ({CH2CO}-[Dap]Y(Carboxymethyl)D[Phe(3-Me)]Y[Bip]Y[Orn][dL][Dab][Cha]YRC[AEEA][Aun]-OH; thioether N-14) stands 233 nM; under `CC(C)C[C@H]1NC(=O)[C@H](CCCN)NC(=O)[C@H](C(C)C)NC(=O)[C@H](Cc2ccc(-c3ccccc3)cc2)NC(=O)[C@H](C(C)C)NC(=O)[C@H](Cc2c[nH]c3ccccc23)NC(=O)[C@H](CC(=O)O)NC(=O)[C@H](Cc2ccc(C(=O)O)cc2)NC(=O)[C@H](Cc2ccc(OCC(=O)O)cc2)NC(=O)CSC[C@@H](C(=O)N[C@@H](CCN)C(=O)NCCCCCCCCCCC(=O)O)NC(=O)[C@H](CCCCN)NC(=O)[C@H](C(C)C)NC(=O)[C@H](CC2CCCCC2)NC(=O)[C@H](CCN)NC1=O` [Compound 2555] ({CH2CO}-Y(Carboxymethyl)[Phe(4-COOH)]DWV[Bip]V[Orn][dL][Dab][Cha]VKC[Dab][Aun]-OH; thioether N-14), 24.1 nM; under `CNC[C@@H]1NC(=O)CSC[C@@H](C(=O)N[C@@H](CCN)C(=O)NCCOCCOCC(=O)N[C@@H](CO)C(=O)NCCCCCCCCCCCCCCC(=O)O)NC(=O)[C@H](CCC(=O)O)NC(=O)[C@H](C(C)C)NC(=O)[C@H](CC2CCCCC2)NC(=O)[C@H](CCN)NC(=O)[C@@H](CC(C)C)NC(=O)[C@H](CCCN)NC(=O)[C@H](Cc2ccc(C(=O)O)cc2)NC(=O)[C@H](Cc2ccc(-c3ccccc3)cc2)NC(=O)[C@H](Cc2ccc(C(=O)O)cc2)NC(=O)[C@H](Cc2cccc(C(F)(F)F)c2)NC(=O)[C@H](CC(=O)O)NC(=O)[C@H](Cc2ccc(OCC(=O)O)cc2)NC1=O` [Compound 3895] ({CH2CO}-[Dap(Me)]Y(Carboxymethyl)D[Phe(3-CF3)][Phe(4-COOH)][Bip][Phe(4-COOH)][Orn][dL][Dab][Cha]VEC[Dab][AEEA]S-{NH(CH2)14COOH}; thioether N-14), 49.4 nM. For `Cc1cccc(C[C@@H]2NC(=O)[C@H](CC(=O)O)NC(=O)[C@H](Cc3ccc(OCC(=O)O)cc3)NC(=O)[C@H](CCN)NC(=O)CSC[C@@H](C(=O)N[C@@H](CCN)C(=O)NCCCCCCCCCCC(=O)O)NC(=O)[C@H](CO)NC(=O)[C@H](C(C)(C)O)NC(=O)[C@H](CC3CCCCC3)NC(=O)[C@H](CCN)NC(=O)[C@@H](CC(C)C)NC(=O)[C@H](CCCN)NC(=O)[C@H](Cc3ccc(OCC(=O)O)cc3)NC(=O)[C@H](Cc3ccc(-c4ccccc4)cc3)NC(=O)[C@H](Cc3ccc(OCC(=O)O)cc3)NC2=O)c1` [Compound 3629] ({CH2CO}-[Dab]Y(Carboxymethyl)D[Phe(3-Me)]Y(Carboxymethyl)[Bip]Y(Carboxymethyl)[Orn][dL][Dab][Cha][Val(3-OH)]SC[Dab][Aun]-OH; thioether N-14), the concentration for half-maximal inhibition (IC50) was found to be 8.4 nM. Next, `CC(C)C[C@@H]1NC(=O)[C@H](Cc2c[nH]c3ccccc23)NC(=O)[C@H](CC(=O)O)NC(=O)[C@H](Cc2ccc(OCC(=O)O)cc2)NC(=O)[C@H](C(C)O)NC(=O)CSC[C@@H](C(=O)NCCOCCOCC(=O)NCCCCCCCCCCC(=O)O)NC(=O)[C@H](Cc2cnc[nH]2)NC(=O)[C@H](C(C)O)NC(=O)[C@H](CC2CCCCC2)NC(=O)[C@H](CCN)NC(=O)[C@@H](CC(C)C)NC(=O)[C@H](CCCN)NC(=O)[C@H](C(C)C)NC(=O)[C@H](Cc2ccc(-c3ccccc3)cc2)NC1=O` (stereo partly drawn) [Compound 3691] ({CH2CO}-[Thr(3ξ)]Y(Carboxymethyl)DWL[Bip]V[Orn][dL][Dab][Cha][Thr(3ξ)]HC[AEEA][Aun]-OH; thioether N-14): 71.3 nM; `CC(C)C[C@H]1NC(=O)[C@H](CCCN)NC(=O)[C@H](C(C)C)NC(=O)[C@H](Cc2ccc(-c3ccccc3)cc2)NC(=O)[C@H](C(C)C)NC(=O)[C@H](Cc2c[nH]c3ccccc23)NC(=O)[C@H](CC(=O)O)NC(=O)[C@H](Cc2ccc(OCC(=O)O)cc2)NC(=O)[C@H](CN)NC(=O)CSC[C@@H](C(=O)N[C@@H](CN)C(=O)NCCCCCCCCCCC(=O)O)NC(=O)[C@H]([C@@H](C)O)NC(=O)[C@H](C(C)C)NC(=O)[C@H](CC2CCCCC2)NC(=O)[C@H](Cc2c[nH]cn2)NC1=O` [Compound 1074] ({CH2CO}-[Dap]Y(Carboxymethyl)DWV[Bip]V[Orn][dL]H[Cha]VTC[Dap][Aun]-OH; thioether N-14): 69.5 nM.
